Values quoted from earlier work as cited in patent publication US20170215417A1, “ANTIMICROBIAL COMPOSITIONS” (LIVIONEX, Inc., priority 2013, published 2017).
Like-named read-outs stand apart in the source and are kept apart here.

Legend:
[1] = @ 79° F.
[2] = test system: Trichomichosis axillaris polymicrobial infection; conditions: for average time for resolution of the disease: then antimicrobial cream or lotion (Kim, Korean J Med Mycol. 2005)

## CS(C)(=O)=O [MSM, methylsulfonylmethane]
[1]
  water solubility: 34 % w/v

## O=C(OOC(=O)c1ccccc1)c1ccccc1 [benzoyl peroxide]
[2]; standard treatment: shaving, then antimicrobial cream or lotion
  irritation and contact dermatitis with standard treatment: often results in irritation and contact dermatitis
[2]; standard treatment: shaving
  average time for resolution of the disease: 3 weeks

## CC[C@H]1OC(=O)[C@H](C)[C@@H](O[C@H]2C[C@@](C)(OC)[C@@H](O)[C@H](C)O2)[C@H](C)[C@@H](O[C@@H]2O[C@H](C)C[C@H](N(C)C)[C@H]2O)[C@](C)(O)C[C@@H](C)C(=O)[C@H](C)[C@@H](O)[C@]1(C)O [erythromycin]
[2]; human, in vivo
  irritation and contact dermatitis with standard treatment: often results in irritation and contact dermatitis
[2]; standard treatment: shaving
  average time for resolution of the disease: 3 weeks
